Measured values from article PMC11323699, “The CD47/TSP-1 axis: a promising avenue for ovarian cancer treatment and biomarker research” (Molecular Cancer, 2024).

Tests used:
[1] = system: ID8 Trp53−/− Brca2−/− cells; experiment: TAX2 efficacy alone or in sequential combination with olaparib, metastatic peritoneal carcinomatosis model; assay type: in vivo, C57BL/6 J mice; conditions: for Mouse survival, prolonged olaparib design: from day 7 post inoculation olaparib 50 mg/kg per os daily 5 weeks, then TAX2 30 mg/kg IV three times a week, n = 7–11 per group, p = 0.0014 post discontinuation, median survival p = 0.0205; for Animal survival versus controls (Kaplan–Meier): same regimens as Fig. 6b, Gehan–Breslow–Wilcoxon test, TAX2 p = 0.0347 vs controls; for Median survival: treatment from day after IP inoculation, TAX2 30 mg/kg IV 3 times weekly for 6 weeks or olaparib 50 mg/kg per os daily for 2 weeks, n = 9–19 per group, end point 20% body weight gain
Experimental: Eight-week-old C57BL/6 J mice were IP injected with 2 × 10^6 ID8 Trp53^−/− Brca2^−/− cells in 300 µL HBSS. For mouse treatments, TAX2 peptide was IV injected at 30 to 100 mg/kg, three times a week; olaparib (catalog no. M1664, AbMole, TX, USA) was given per os at a 50 mg/kg BW dose, daily. Two different sequential treatments were performed. In the first one, mice were treated one day after tumor inoculation with olaparib for 2 weeks followed by 4 weeks of TAX2. In the second one, mice were randomized 7 days after tumor inoculation and first treated with olaparib daily for 5 weeks or an identical volume of olaparib vehicle composed of 10% (2-hydroxypropyl)-β-cyclodextrin and 10% DMSO in D-PBS buffer. Mice were then sequentially treated with TAX2 for a maximum of 3 weeks. […] Mice were weighed twice or thrice a week and abdominal distension was measured using a digital caliper. Tumor burden was monitored using body weight change as a measure of ascitic fluid buildup post inoculation as previously described in the same model. Gain of 20% body weight was considered as the end point for survival analysis. In this orthotopic model, it is impossible to determine whether the absence of tumor uptake is treatment related or not. Therefore, mice showing no signs of tumor development (carcinosis, nodules, or ascites) at the time of euthanasia were excluded to avoid misinterpretation of the results.
Two-tailed Pearson and Spearman tests were used to assess the correlation between two linear or monotonic variables, respectively, and Mann–Whitney test was used where appropriate. Mouse survival curves were generated using Kaplan–Meier analysis with Gehan–Breslow–Wilcoxon tests as previously reported for ID8 syngeneic model. All graphs and statistics were generated with Prism (GraphPad Software, La Jolla, CA) using the statistical tests and sample sizes indicated in the figure legends.

[2] = system: ID8 Trp53−/− Brca2−/− ovarian carcinoma cells; conditions: mouse, in vivo, 10 mg/kg
Experimental: After 5 (IP model) or 10 (SC model) weeks of tumor growth, mice received an IV bolus dose of TAX2-Cy5 at 10 mg/kg BW in injectable saline solution. After in vivo imaging and mouse euthanasia, subcutaneous tumor or peritoneal tumor mass and metastatic nodules, were collected and imaged with instrument sensitivity set to “Normal” using the same protocol as described above for healthy mice. TAX2-Cy5 concentration was calculated as described above.

[3] = Toxicology and safety pharmacology studies in rats; conditions: Sprague–Dawley rats, data not shown
[4] = Toxicology and safety pharmacology studies in dogs; conditions: beagle dogs, data not shown

| SMILES | Mouse survival, prolonged olaparib design [1] | Mice exhibiting no response to olaparib (tumor burden) ([1]; olaparib 50 mg/kg per os daily for 2 weeks, n = 20, tumor burden by body weight change) [%] | Median survival of olaparib-resistant mice ([1]; olaparib alone 50 mg/kg per os daily for 2 weeks, unresponsive mice n = 14, control 38 days) [days] | Animal survival versus controls (Kaplan–Meier) [1] | Median survival ([1]; control 38 days) [days] | Mice surviving for the duration of the experimental protocol (weak peritoneal carcinomatosis) ([1]; TAX2 30 mg/kg IV 3 times weekly for 6 weeks) | Localization at tumor sites [2] | Tolerability after systemic administration [3] | Tolerability after systemic administration [4] |
| --- | --- | --- | --- | --- | --- | --- | --- | --- | --- |
| O=C(c1cc(Cc2n[nH]c(=O)c3ccccc23)ccc1F)N1CCN(C(=O)C2CC2)CC1 [olaparib] | increased mouse survival | 75 | 41 | failed to improve animal survival | 43 | – | – | – | – |
| CC(C)C[C@@H]1NC(=O)[C@H](CC(C)C)NC(=O)[C@H](CCC(N)=O)NC(=O)[C@H](CO)NC(=O)[C@H](C(C)C)NC(=O)[C@H](CCC(=O)O)NC(=O)[C@@H](N)CSSC[C@@H](C(=O)O)NC(=O)[C@H](C)NC(=O)[C@H](CC(=O)O)NC(=O)CNC(=O)[C@H](CCCCN)NC1=O [TAX2] | further improved survival | – | – | modestly but significantly extended the survival rate | 44 | 1 out of 9 | localization of TAX2 at tumor sites | very well tolerated | very well tolerated |
